Source: patent US12138322B2, “Method of preventing the development of melanoma” (Vector Vitale IP LLC, priority 2019, dated 2024)
Where “and” joins values, the source holds several entries; their conditions need not be identical. Equal values may be shown once. Entries after “also recorded” stand apart in the source; their conditions may differ. Marks after values point to notes of the source that are not given here.

Tests used:
[1] = system: B16 melanoma; assay: B16 melanoma tumor growth and survival in mice, intratumoral administration; type: in vivo, C57Bl/J6 mice; set-up: key to presence or absence of tumor, individual animals: Tumor−: absence of tumor growth; Tumor+: presence of tumor; key to tumor volume, individual animals: tumor volume in mm^3, ellipsoid V = 4/3×π×a×b×c from radii; conditions: for size of melanoma reduced compared to control: drug administered on the 11th day after inoculation; for tumor volume, individual animals: group 2, individual regimens
Protocol: B16 melanoma cells having the following characteristic were used in the experiment: • Origin: Mus musculus skin (C57BL/6 mouse) • Characteristics of tumor growth: short incubation period, rapid growth, absence of spontaneous metastases. • Tumor inoculability is 100%. The minimum dose of cells that causes tumor growth for this melanoma is only 100 to 1000 per subcutaneous injection in the mouse.
15 female C57Bl/J6 mice (5 mice per group) at the age of 10-12 weeks, weighing 18-22 g were used in the experiment.
B16 melanoma cells were cultured in vitro under standard conditions. For transplantation, tumor cells in the exponential phase were removed from the substrate with 0.02% Versene solution and the suspension cellularity and viability was evaluated in the presence of trypan blue in a hemocytometer and the suspension was adjusted to a concentration of 10^7 cells/ml by dilution with saline solution. Melanoma cells were injected intracutaneously (i.e.) in 0.05 ml of the suspension (0.5×10^6 cells/mouse) into the animal's back region. 24 hours before the injection of tumor cells, the wool cover on the back of each mouse was removed with depilation cream.
Grouping. The animals were divided into groups as follows: • Group No. 1: control group, mice injected i.e. with B16 melanoma cells; • Group No. 2: mice injected i.e. with B16 melanoma cells+intratumoral injections of ^64Zne(Asp)2 at day 5 after the tumor cells were inoculated. • Group No. 3: mice injected i.e. with B16 melanoma cells+intratumoral injections of ^64Zne(Asp)2 at day 11 after the tumor cells were inoculated
The composition to be administered was prepared immediately prior to its administration. ^64Zne(Asp)2 was dissolved in deuterium-depleted water with addition of 1% DMSO. Animals in group No. 2 were injected with the composition comprising ^64Zne(Asp)2 intratumorally and around the area of tumor growth at a dose of 200 μg/mouse in a volume of 20 μl/mouse after the tumor reached 0.5 cm in diameter (at day 5 after i.e. administration of the tumor cells).
Animals in group No. 3 were injected with the composition comprising ^64Zne(Asp)2 intratumorally and around the area of tumor growth at a dose of 300 μg/mouse in a volume of 30 μl/mouse at day 11 after i.e. administration of the tumor cells. […] 24 hours after the first injection and then a series of injections were given every other day. ^64Zne(Asp)2 was administered intratumorally every other day for 10 days, 5 times in total.
Regarding the 3rd group: group 3 mice received 300 mcg/mouse of ^64Zne in the form of ^4Zne aspartate on the 11th day and 200 mcg/mouse of ^4Zne aspartate on the 13th, 15th, 17th and 19th days after tumor cell injection.
The anti-tumor efficacy of ^64Zne(Asp)2 was evaluated on the basis of the growth dynamics of melanoma tumors estimated based on the changes in tumor volume according to generally accepted rules.
From the time the experimental tumors reached 0.3-0.5 cm in diameter and every 2-3 days thereafter, the size of each tumor node in experimental animals was measured in three orthogonal planes (width×length×height (W×L×H)) and the tumor volume was calculated by use of the following formula for the volume of ellipsoid: V= 4/3×πabc; where V is the tumor volume (mm^3); a, b, c is the rumor radius (mm): a is the radius along the x axis, b is the radius along the y axis, c is the radius along the z axis.

[2] = system: melanoma; assay: Simultaneous intratumoral and intravenous administration (data not shown); type: in vivo
Protocol: A possibility of simultaneous intratumoral and intravenous administration of the composition comprising 64Zne(Asp)2 was assessed in additional experiments (data not shown).

## N[C@@H](CC(=O)[O-])C(=O)[O-].[Zn+2] [^64Zne(Asp)2, Zinc L-aspartate]
[1]; 21st day
  size of melanoma reduced compared to control: 85%
[1]; 24th day
  size of melanoma reduced compared to control: 75.6%
[1]; 4 day after tumor cell inoculation (before 1st injection)
  tumor volume, individual animals: 14.1 and 33.5 and 24.4 (2×) and 25
[1]; 6 day
  tumor volume, individual animals: 14.1 (3×) and 33.5 and 65.4
[1]; 10 day
  tumor volume, individual animals: 24.4 (2×) and 14 (2×) and 51
[1]; 12 day
  tumor volume, individual animals: 24.4 and 14 (3×) and 116.4
[1]; 13 day, group 2
  local finding at tumor site, individual animal: Eschar
  presence or absence of tumor, individual animals: Tumor +/
[1]; 14 day
  tumor volume, individual animals: 14 (2×) and 4.2 and 38.4 and 9.2
[1]; 17 day
  tumor volume, individual animals: 4.2 (3×) and 65.4 and 14
[1]; 18 day, group 2
  presence or absence of tumor, individual animals: Tumor +/
[1]; 21 day
  tumor volume, individual animals: 0 (3×) and 179.6 and 33.5
[1]; 22 day, group 2
  presence or absence of tumor, individual animals: Tumor +/
[1]; 24 day
  tumor volume, individual animals: 25.4 and 0 (2×) and 282.7 and 33.5
[1]; 25 day, group 2
  Tumor necrosis, individual animal: necrosis
  presence or absence of tumor, individual animals: Tumor +/
[1]; 28 day, group 2
  death of individual animal: Died*
  presence or absence of tumor, individual animals: Tumor−; also recorded: Tumor +/
[1]; 28 day
  tumor volume, individual animals: 33.2 and 0 (2×) and 641 and 102.6
[1]; 36 day, group 2
  presence or absence of tumor, individual animals: Tumor +/; also recorded: Tumor−
[1]; 39 day, group 2
  Tumor necrosis, individual animal: necrosis
  presence or absence of tumor, individual animals: Tumor+; also recorded: Tumor−; also recorded: Tumor +/
[1]; 43 day, group 2
  death of individual animal: Died*
  presence or absence of tumor, individual animals: Tumor+; also recorded: Tumor−
[1]; 55 day, group 2
  presence or absence of tumor, individual animals: Tumor−
[1]; 58 day, group 2
  Tumor necrosis, individual animal: necrosis
  presence or absence of tumor, individual animals: Tumor +/; also recorded: Tumor−
[1]; 61 day, group 2
  death of individual animal: Died*
  presence or absence of tumor, individual animals: Tumor−
[1]; day 4 after inoculation (before first injection), group 2: intratumoral 200 μg/mouse at day 5
  Tumor volume (M ± m): 24.3 mm^3
[1]; day 4 after inoculation (before first injection), group 3: intratumoral 300 μg/mouse at day 11, then 200 μg/mouse
  Tumor volume (M ± m): 27 mm^3
[1]; day 4 after inoculation, group 2: intratumoral at day 5, 5 animals per group
  Number of alive mice: 100%
[1]; day 4 after inoculation, group 3: intratumoral at day 11, 5 animals per group
  Number of alive mice: 100%
[1]; day 6, group 2: intratumoral at day 5
  Number of alive mice: 100%
[1]; day 6, group 3: intratumoral at day 11
  Number of alive mice: 100%
[1]; day 6 after inoculation (before first injection), group 3: intratumoral 300 μg/mouse at day 11, then 200 μg/mouse
  Tumor volume (M ± m): 63 mm^3
[1]; day 6 after inoculation, group 2: intratumoral 200 μg/mouse at day 5
  Tumor volume (M ± m): 28.2 mm^3
[1]; day 9, group 2: intratumoral at day 5
  Number of alive mice: 100%
[1]; day 9, group 3: intratumoral at day 11
  Number of alive mice: 100%
[1]; day 9 after inoculation (before first injection), group 3: intratumoral 300 μg/mouse at day 11, then 200 μg/mouse
  Tumor volume (M ± m): 119 mm^3
[1]; day 9 after inoculation, group 2: intratumoral 200 μg/mouse at day 5
  Tumor volume (M ± m): 25.6 mm^3
[1]; day 12, group 2: intratumoral at day 5
  Number of alive mice: 100%
[1]; day 12, group 3: intratumoral at day 11
  Number of alive mice: 80^+ %
[1]; day 12 after inoculation, group 2: intratumoral 200 μg/mouse at day 5
  Tumor volume (M ± m): 36.6 mm^3
[1]; day 12 after inoculation, group 3: intratumoral 300 μg/mouse at day 11, then 200 μg/mouse
  Tumor volume (M ± m): 260 ± 20 mm^3
[1]; day 14, group 2: intratumoral at day 5
  Number of alive mice: 100%
[1]; day 14, group 3: intratumoral at day 11
  Number of alive mice: 80%
[1]; day 14 after inoculation, group 2: intratumoral 200 μg/mouse at day 5
  Tumor volume (M ± m): 16 ± 6^d mm^3
[1]; day 14 after inoculation, group 3: intratumoral 300 μg/mouse at day 11, then 200 μg/mouse
  Tumor volume (M ± m): 184 ± 51 mm^3
[1]; day 17, group 2: intratumoral at day 5
  Number of alive mice: 100%
[1]; day 17, group 3: intratumoral at day 11
  Number of alive mice: 80%
[1]; day 17 after inoculation, group 2: intratumoral 200 μg/mouse at day 5
  Tumor volume (M ± m): 18.4 mm^3
[1]; day 17 after inoculation, group 3: intratumoral 300 μg/mouse at day 11, then 200 μg/mouse
  Tumor volume (M ± m): 250 mm^3
[1]; day 21, group 2: intratumoral at day 5
  Number of alive mice: 100%
[1]; day 21, group 3: intratumoral at day 11
  Number of alive mice: 80%
[1]; day 21 after inoculation, group 2: intratumoral 200 μg/mouse at day 5
  Tumor volume (M ± m): 42.6 mm^3
[1]; day 21 after inoculation, group 3: intratumoral 300 μg/mouse at day 11, then 200 μg/mouse
  Tumor volume (M ± m): 375.4 mm^3
[1]; day 24, group 2: intratumoral at day 5
  Number of alive mice: 100%
[1]; day 24, group 3: intratumoral at day 11
  Number of alive mice: 60* %
[1]; day 24 after inoculation, group 2: intratumoral 200 μg/mouse at day 5
  Tumor volume (M ± m): 68.3 mm^3
[1]; day 24 after inoculation, group 3: intratumoral 300 μg/mouse at day 11, then 200 μg/mouse
  Tumor volume (M ± m): 881 mm^3
[1]; day 27, group 2: intratumoral at day 5
  Number of alive mice: 100%
[1]; day 27, group 3: intratumoral at day 11
  Number of alive mice: 60%
[1]; day 27 after inoculation, group 2: intratumoral 200 μg/mouse at day 5
  Tumor volume (M ± m): 155.4 mm^3
[1]; day 27 after inoculation, group 3: intratumoral 300 μg/mouse at day 11, then 200 μg/mouse
  Tumor volume (M ± m): 2313.5 mm^3
[1]; day 28, group 2: intratumoral at day 5
  Number of alive mice: 80* %
[1]; day 28, group 3: intratumoral at day 11
  Number of alive mice: 40%
[1]; day 31, group 2: intratumoral at day 5
  Number of alive mice: 80%
[1]; day 31, group 3: intratumoral at day 11
  Number of alive mice: 40%
[1]; group No. 2, after a single intratumoral injection at day 5
  animals in which growth of melanoma was suppressed by 100%: 2 out of 5
[1]; intratumoral on the 5th day after inoculation, day of reading not given
  tumor volume as % of the corresponding figure in the control group: 4%
[2]
  suppression of the metastatic process (tumor size, surviving animals, number of metastases), words: confirmed the efficacy
